From patent publication US20260097047A1, “Small molecule inhibitors of the ribosome biogenesis factor NVL2” (Board of Regents, The University of Texas System, priority 2023, published 2026)

tested on: HCT116 cells; assay: Cell viability assay (CellTiter-Glo, 72 hours) in HCT116 human colorectal cancer cells; format: cell-based; details: Homo sapiens, HCT-116; Table 5; HCT116, 72 hours; read-out: Activity
Procedure, shortened: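 Ten-point IC50 came from an asymmetric five-parameter fit of luminescence corrected to vehicle wells. ATP content was measured by CellTiter-Glo 72 h after dosing at 37 °C. Cells were seeded at 2,000/well the day before, with 0.5% DMSO in all wells.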

IC50 [nM]	SMILES
500 to 1000	CCC/C=C/CN1C(=O)c2ccccc2Sc2cc(Nc3ncccc3OC)ccc21 [(E)-10-(Hex-2-en-1-yl)-7-((3-methoxypyridin-2-yl)amino)dibenzo[b,f][1,4]thiazepin-11 (10H)-one]
< 500	CCC/C=C/CN1C(=O)c2ccccc2Sc2cc(Nc3ncccc3F)ccc21 [(E)-7-((3-Fluoropyridin-2-yl)amino)-10-(hex-2-en-1-yl)dibenzo[b,f][1,4]thiazepin-11 (10H)-one]
< 500	CC#CCN1C(=O)c2ccccc2Sc2cc(Nc3nnccc3C)ccc21 [10-(But-2-yn-1-yl)-7-((4-methylpyridazin-3-yl)amino)dibenzo[b,f][1,4]thiazepin-11 (10H)-one]
< 500	CC#CCN1C(=O)c2ccccc2Sc2cc(Nc3nccc(-c4cccnc4)n3)ccc21 [10-(But-2-yn-1-yl)-7-((4-(pyridin-3-yl)pyrimidin-2-yl)amino)dibenzo[b,f][1,4]thiazepin-11 (10H)-one]
< 500	CC#CCN1C(=O)c2ccccc2Sc2cc(Nc3cc(C)cnn3)ccc21 [10-(But-2-yn-1-yl)-7-((5-methylpyridazin-3-yl)amino)dibenzo[b,f][1,4]thiazepin-11 (10H)-one]
500 to 1000	CCC/C=C/CN1C(=O)c2ccccc2Sc2cc(Nc3nccnc3OC)ccc21 [(E)-10-(Hex-2-en-1-yl)-7-((3-methoxypyrazin-2-yl)amino)dibenzo[b,f][1,4]thiazepin-11 (10H)-one]
< 500	CC#CCN1C(=O)c2ccccc2Sc2cc(Nc3nc(C)ccc3F)ccc21 [10-(But-2-yn-1-yl)-7-((3-fluoro-6-methylpyridin-2-yl)amino)dibenzo[b,f][1,4]thiazepin-11 (10H)-one]
< 500	CC#CCN1C(=O)c2ccccc2Sc2cc(Nc3cnn(C)c3)ccc21 [10-(But-2-yn-1-yl)-7-((1-methyl-1H-pyrazol-4-yl)amino)dibenzo[b,f][1,4]thiazepin-11 (10H)-one]

same assay, conditions: Homo sapiens, HCT-116; Table 6; HCT116, 72 hours; read-out: Activity

IC50 [nM]	SMILES
< 500	CC#CCN1C(=O)c2ccccc2Sc2cc(NC3CC4CCC3C4)ccc21 (centres unmarked) [7-(Bicyclo[2.2.1]heptan-2-ylamino)-10-(but-2-yn-1-yl)dibenzo[b,f][1,4]thiazepin-11 (10H)-one]
< 500	CC#CCN1C(=O)c2ccccc2Sc2cc(NC3COCC3C)ccc21 (centres unmarked) [10-(But-2-yn-1-yl)-7-((4-methyltetrahydrofuran-3-yl)amino)dibenzo[b,f][1,4]thiazepin-11 (10H)-one]
< 500	CC#CCN1C(=O)c2ccccc2Sc2cc(NC3CCCC3)ccc21 [Table 6: —CH2CCMe; cPent; CH/CH; S, 10-(But-2-yn-1-yl)-7-(cyclopentylamino)dibenzo[b,f][1,4]thiazepin-11 (10H)-one]

same assay, conditions: Table 3; HCT116, 72 hours; read-out: Activity

IC50 [nM]	SMILES
< 500	CC#CCN1C(=O)c2ccccc2Sc2cc(NC(=O)N[C@H]3C[C@@H](O)C3)cnc21 [Table 3: —CH2CCMe; cis-3-OH-cBu; CH/N]

same assay, conditions: Table 4; HCT116, 72 hours; read-out: Activity

IC50 [nM]	SMILES
< 500	CC#CCN1C(=O)c2ccccc2Sc2cc(NC(=S)NC3CC(COC)C3)ccc21 (centres unmarked) [Table 4: —CH2CCMe; 3-MeOCH2-cBu; CH]
< 500	CC#CCN1C(=O)c2ccccc2Sc2cc(NC(=S)Nc3ccc(OCF)cc3)cnc21 [Table 4: —CH2CCMe; 4-FH2COPh; N]
< 500	CC#CCN1C(=O)c2ccccc2Sc2cc(NC(=S)Nc3ccc(OC)cc3)cnc21 [Table 4: —CH2CCMe; 4-MeOPh; N]
< 500	CC#CCN1C(=O)c2ccccc2Sc2cc(NC(=S)N[C@H]3C[C@@H](O)C3)ccc21 [Table 4: —CH2CCMe; cis-3-OH-cBu; CH]
< 500	CC#CCN1C(=O)c2ccccc2Sc2cc(NC(=S)N[C@H]3C[C@H](OC)C3)ccc21 [Table 4: —CH2CCMe; trans-3-MeOcBu; CH]

same assay, conditions: Table 5; HCT116, 72 hours; read-out: Activity

SMILES	IC50 [nM]
CC#CCN1C(=O)c2ccccc2Sc2cc(Nc3nnccc3C#N)cnc21	< 500
CC=CCN1C(=O)c2ccccc2Sc2cc(Nc3ncccc3F)cnc21	< 500
C#CCN1C(=O)c2ccccc2Sc2cc(Nc3ncc(C)cc3C)cnc21	< 500
CC=CCN1C(=O)c2ccccc2Sc2cc(Nc3ncc(C)cc3C)ccc21	< 500

same assay, conditions: Table 6; HCT116, 72 hours; read-out: Activity

IC50 [nM]	SMILES
< 500	C#CCN1C(=O)c2ccccc2Sc2cc(NC3CC(OC)C3)cnc21 (centres unmarked) [Table 6: —CH2CCH; 3-MeOcBu; CH/N; S]
< 500	CC#CCN1C(=O)c2ccccc2Sc2cc(NC34CC(OC)(C3)C4)ccc21

same assay, conditions: Table 7; cell viability assay, CellTiter-Glo, 72 hours; scaffold drawing 42 with R^2, R^3, X/Y, Z; read-out: Activity

IC50 [nM]	SMILES
< 500	COCCN1C(=O)c2ccccc2Sc2cc(NC(=O)c3ccc4oc(C)nc4c3)ccc21
500 to 1000	COCCN1C(=O)c2ccccc2Sc2cc(NC(=O)c3ccc(OC)cc3F)ccc21 [—(CH2)2OMe; 2-F,4-MeOPh; CH/CH; S]
1000 to 5000	O=C(Nc1ccc2c(c1)Sc1ccccc1C(=O)N2CCO)c1ccoc1 [—(CH2)2OH; furan-3-yl; CH/CH; S]
1000 to 5000	COCCN1C(=O)c2ccccc2Sc2cc(NC(=O)c3ccc4ccccc4c3)ccc21 [—(CH2)2OMe; 2-naphtyl; CH/CH; S]
1000 to 5000	COCCN1C(=O)c2ccccc2Sc2cc(NC(=O)C3CC34CC4)ccc21 (centres unmarked) [—(CH2)2OMe; spiro[2.2]pentanyl; CH/CH; S]
1000 to 5000	COCCN1C(=O)c2ccccc2Sc2cc(NC(=O)c3ccc(F)cc3)ccc21 [—(CH2)2OMe; 4-FPh; CH/CH; S]
1000 to 5000	COCCN1C(=O)c2ccccc2Sc2cc(NC(=O)c3ccc4nccn4c3)ccc21
500 to 1000	COCCN1C(=O)c2ccccc2Sc2cc(NC(=O)c3ccoc3C)ccc21 [—(CH2)2OMe; 2-Me-furan-3-yl; CH/CH; S]

same assay, conditions: Table 8; analogs of scaffold drawing 43 defined by R^2, R^3, X/Y, W; read-out: Activity (IC50 class, cell viability assay)

IC50 [nM]	SMILES
< 500	CC#CCN1C(=O)c2ccccc2Sc2cc(NC(=O)c3ccoc3)cnc21 [—CH2CCMe; furan-3-yl; CH/CH; N]
< 500	CON=C1CC2(C1)CC(C(=O)Nc1ccc3c(c1)Sc1cc(Cl)ccc1C(=O)N3CC#CCl)C2 (centres unmarked)
< 500	CC#CCN1C(=O)c2ccc(Cl)cc2Sc2cc(NC(=O)NCCOC)cnc21 [—CH2CCMe; NH(CH2)2OMe; CCl/CH; N]
< 500	CON=C1CC2(C1)CC(C(=O)Nc1ccc3c(c1)Sc1ccc(F)cc1C(=O)N3CC#CC1CC1)C2 (centres unmarked)
< 500	CC#CCN1C(=O)c2ccccc2Sc2cc(NC(=O)C3CC4(CC(=NO)C4)C3)cnc21 (centres unmarked)
< 500	O=C(Nc1cnc2c(c1)Sc1ccccc1C(=O)N2CC#CCl)C1CC2(CC(=NO)C2)C1 (centres unmarked)
< 500	CC#CCN1C(=O)c2ccccc2Sc2cc(NC(=O)C3CC4(CC(=O)C4)C3)cnc21
< 500	COC12CC(C(=O)Nc3cnc4c(c3)Sc3ccc(F)cc3C(=O)N4CC#CC3CC3)(C1)C2
< 500	CC#CCN1C(=O)c2ccc(Cl)cc2Sc2cc(NC(=O)[C@H]3C[C@@H]3COC)ccc21 (relative stereo) [—CH2CCMe; trans-2-MeOCH2-cPr; CCl/CH; CH]
< 500	CO[C@H]1C[C@H](C(=O)Nc2cnc3c(c2)Sc2ccccc2C(=O)N3CC#CCF)C1 [—CH2CCCH2F; trans-3-MeOcBu; CH/CH; N]
< 500	CO[C@H]1C[C@@H](C(=O)Nc2cnc3c(c2)Sc2cc(Cl)ccc2C(=O)N3CC#CCl)C1 [—CH2CCCl; cis-3-MeOcBu; CCl/CH; N]
< 500	COCC1CC(C(=O)Nc2cnc3c(c2)Sc2ccccc2C(=O)N3CC#CC2CC2)C1 (centres unmarked) [—CH2CC^cPr; 3-MeOCH2-cBu; CH/CH; N]
< 500	COCC1CC(C(=O)Nc2ccc3c(c2)Sc2ccc(F)cc2C(=O)N3CC#CCF)C1 (centres unmarked) [—CH2CCCH2F; 3-MeOCH2-cBu; CH/CF; CH]
< 500	CC#CCN1C(=O)c2ccccc2Sc2cc(NC(=O)CCCO)cnc21 [—CH2CCMe; (CH2)3 OH; CH/CH; N]
< 500	CC#CCN1C(=O)c2ccccc2Sc2cc(NC(=O)C34CC(C3)C4)ccc21
< 500	CC#CCN1C(=O)c2ccc(F)cc2Sc2cc(NC(=O)C3CC4(CC(=NO)C4)C3)ccc21 (centres unmarked)
< 500	COC12CC(C(=O)Nc3cnc4c(c3)Sc3ccccc3C(=O)N4CC#CCF)(C1)C2
< 500	O=C(Nc1cnc2c(c1)Sc1ccc(F)cc1C(=O)N2CC#CC1CC1)C1CC2(CC(O)C2)C1 (centres unmarked)
< 500	CC#CCN1C(=O)c2cc(F)ccc2Sc2cc(NC(=O)C3COC3)ccc21 [—CH2CCMe; oxetan-3-yl; CH/CF; CH]
< 500	CC#CCN1C(=O)c2ccccc2Sc2cc(NC(=O)C3CC4(CCC4)C3)ccc21
< 500	O=C(Nc1ccc2c(c1)Sc1cc(Cl)ccc1C(=O)N2CC#CCl)C1CC1CO (racemic) [—CH2CCCl; trans-2-HOCH2-cPr; CCl/CH; CH]
< 500	CC#CCN1C(=O)c2cc(F)ccc2Sc2cc(NC(=O)[C@H]3C[C@H](O)C3)ccc21 [—CH2CCMe; trans-3-OH-cBu; CH/CF; CH]
< 500	CC#CCN1C(=O)c2ccccc2Sc2cc(NC(=O)C3CC3)cnc21 [—CH2CCMe; cPr; CH/CH; N]
< 500	CC#CCN1C(=O)c2ccccc2Sc2cc(NC(=O)C=CCOC)ccc21 [—CH2CCMe; CH═CHCH2OMe; CH/CH; CH]
< 500	CC#CCN1C(=O)c2cc(F)ccc2Sc2cc(NC(=O)C=CCO)cnc21 [—CH2CCMe; CH═CHCH2OH; CH/CF; N]

same assay, conditions: Table 9; HCT116, 72 hours; read-out: Activity

IC50 [nM]	SMILES
< 500	CC#CCN1C(=O)c2ccccc2C(C)c2cc(NC(=O)[C@@H]3C[C@H]3COC)ccc21 (relative stereo)
< 500	CC1c2ccccc2C(=O)N(CC#CC2CC2)c2ccc(NC(=O)C3COC3)cc21 (centres unmarked) [Table 9: —CH2CC^cPr; oxetan-3-yl; CHMe]
< 500	CO[C@H]1C[C@@H](C(=O)Nc2ccc3c(c2)Cc2ccccc2C(=O)N3CC#CC2CC2)C1 [Table 9: —CH2CCCPr; cis-3-MeOcBu; CH2]
< 500	O=C(Nc1ccc2c(c1)Cc1ccccc1C(=O)N2CC#CC1CC1)C1CC2(CC(=NO)C2)C1 (centres unmarked)
< 500	CC#CCN1C(=O)c2ccccc2C(C)(O)c2cc(NC(=O)C3CC4(CC(=NO)C4)C3)ccc21 (centres unmarked)

same assay, conditions: cell viability assay; Table 10 analogs of scaffold drawing 45 defined by R2, R3, X/Y, W; read-out: Activity

IC50 [nM]	SMILES
< 500	CO[C@H]1C[C@H](C(=O)Nc2cnc3c(c2)Sc2ccccc2C(=O)N3CC#CCF)C1 [—CH2CCCH2F; trans-3-MeOcBu; CH/CH; N]
